From patent US20080093247A1, “PACKAGING MATERIALS FOR FORMULATIONS CONTAINING 2-PYRROLIDONE DERIVATIVES” (Alcon Manufacturing Ltd., priority 2006, published 2008)
Several values for one entry are separate records, joined by “and”; a condition that tells them apart may be missing. Equal values may be shown once.

Key:
[1] = Retention of N-dodecyl-2-pyrrolidone (DDP) in formulations stored in various packaging materials, HPLC; type: physicochemical
Method: A material substantially lacking absorptive and adsorptive properties for a 5-(R1)-N-(R2)-2-pyrrolidone. A material substantially lacking absorptive and adsorptive properties for a 5-(R1)-N-(R2)-2-pyrrolidone is determined by packaging a 5-(R1)-N-(R2)-2-pyrrolidone-containing formulation in a bottle made from a test material, removing samples from the formulation at different storage times, and testing for the presence of the 2-pyrrolidone derivative. For example, presence of N-dodecyl-2-pyrrolidone (DDP) within a test sample is determined quantitatively using HPLC analysis as described in the examples provided infra.
The serotonergic formulation set forth in Table 1 was compounded in a glass bottle using techniques known to those skilled in the art. The formulation was tested for starting DDP concentration and then a volume was filled into different types of packaging materials as set forth in Table 2. The filled packages were then stored at the conditions indicated in Table 2, either room temperature or constant temperature ovens at 40° C. and 60° C. The thermal exposure testing was used to simulate the ability of container material to retain and deliver DDP in solution over a period of time or after prolonged increased thermal exposure. The tests were performed on duplicate containers to verify DDP concentration remaining in solution.
Concentration of DDP in each formulation was determined by chromatographic separation. The tests were performed on a WATERS ALLIANCE HPLC system with a CADENZA C18 column using a mobile phase consisting of 85% acetonitrile and 15% 1-octanesulfonic acid/water at room temperature. Absorbance was monitored at 220 nm, the known absorption wavelength of DDP. Linear range of detection for DDP was from 1.0 to 100.0 ppm. Retention time of DDP using this system is 8.3 minutes.
In further reference to Table 2, “Glass Vial” is a 1.5 mL clear borosilicate glass vial sealed with a TEFLON® lined septa and aluminum crimp seal (AGILENT HPLC vials part number 5182-0543). “White PETE” is a 60 mL cylindrical bottle made from polyethylene terephthalate (PETE) resin containing a white colorant, titanium dioxide (ALCON part number X04715). “Natural sPP” is a 4 mL oval bottle made from syndiotactic polypropylene (sPP) resin without colorant, i.e., natural (ALCON part number 281277). “Natural TEFLON®” is a 30 mL cylindrical bottle made from fluorinated ethylene propylene (TEFLON® FEP) polymer without colorant by NALGENE® (VWR part number 16071-008).
The serotonergic formulation set forth in Table 3 was compounded in the same manner as the Table 1 formulation. The test, the method of testing, and the packaging were as for the Table 1 formulation.
The formulation set forth in Table 5 was compounded in the same manner as the Table 1 formulation. The test, the method of testing, and the packaging were as for the Table 1 formulation.
The formulation set forth in Table 7 was compounded in the same manner as the Table 1 formulation. The test, the method of testing, and the packaging were as for the Table 1 formulation, except as indicated. “White LDPE” is an 8 mL cylindrical bottle made from low-density polyethylene (LDPE) with white colorant and is ALCON part number 277027. “Natural Polystyrene” is a 150 mL cylindrical bottle made of polystyrene polymer without colorant and is CORNING filter flask product 431153.

[2] = cited from earlier work

CCCCCCCCCCCCN1CCCC1=O [DDP, N-dodecyl-2-pyrrolidone]
DDP concentration in formulation ([1]; Table 1 formulation, Glass Vial 1.5 mL Fill, 1 day @ 40° C.): 9.5 ppm and 9.6 ppm
DDP concentration in formulation ([1]; Table 1 formulation, Glass Vial 1.5 mL Fill, 1 day @ 60° C.): 10 ppm and 9.6 ppm
DDP concentration in formulation ([1]; Table 1 formulation, Glass Vial 1.5 mL Fill, 1 day @ RT): 9.2 ppm and 9.3 ppm
DDP concentration in formulation ([1]; Table 1 formulation, Glass Vial 1.5 mL Fill, 2 days @ 40° C.): 9.3, 9.3 ppm
DDP concentration in formulation ([1]; Table 1 formulation, Glass Vial 1.5 mL Fill, 2 days @ 60° C.): 9.4 ppm and 9.1 ppm
DDP concentration in formulation ([1]; Table 1 formulation, Glass Vial 1.5 mL Fill, 5 days @ 40° C.): 8.8 ppm and 9.1 ppm
DDP concentration in formulation ([1]; Table 1 formulation, Glass Vial 1.5 mL Fill, 5 days @ 60° C.): 8.9 ppm and 8.6 ppm
DDP concentration in formulation ([1]; Table 1 formulation, Glass Vial 1.5 mL Fill, 6 days @ RT): 9.0, 9.0 ppm
DDP concentration in formulation ([1]; Table 1 formulation, Natural TEFLON 10 mL Fill, 2 days @ 60° C.): 8.4 ppm
DDP concentration in formulation ([1]; Table 1 formulation, Natural TEFLON 10 mL Fill, 5 days @ 60° C.): 7.8 ppm
DDP concentration in formulation ([1]; Table 1 formulation, Natural sPP 4 mL Fill, 1 day @ 40° C.): 3.3 ppm and 3.4 ppm
DDP concentration in formulation ([1]; Table 1 formulation, Natural sPP 4 mL Fill, 1 day @ 60° C.): 1.3, 1.3 ppm
DDP concentration in formulation ([1]; Table 1 formulation, Natural sPP 4 mL Fill, 1 day @ RT): 6.1 ppm and 6.6 ppm
DDP concentration in formulation ([1]; Table 1 formulation, Natural sPP 4 mL Fill, 2 days @ 40° C.): 1.6 ppm and 1.7 ppm
DDP concentration in formulation ([1]; Table 1 formulation, Natural sPP 4 mL Fill, 2 days @ 60° C.): 1.2 ppm and 1.3 ppm
DDP concentration in formulation ([1]; Table 1 formulation, Natural sPP 4 mL Fill, 6 days @ RT): 4.0 ppm and 3.9 ppm
DDP concentration in formulation ([1]; Table 1 formulation, Start, before filling into packaging): 11,11 ppm and 11, 11 ppm
DDP concentration in formulation ([1]; Table 1 formulation, White PETE 10 mL Fill, 1 day @ 40° C.): 9.6 ppm and 9.3 ppm
DDP concentration in formulation ([1]; Table 1 formulation, White PETE 10 mL Fill, 1 day @ 60° C.): 8.1 ppm and 8.3 ppm
DDP concentration in formulation ([1]; Table 1 formulation, White PETE 10 mL Fill, 1 day @ RT): 9.8 ppm and 10 ppm
DDP concentration in formulation ([1]; Table 1 formulation, White PETE 10 mL Fill, 2 days @ 40° C.): 8.9 ppm and 9.4 ppm
DDP concentration in formulation ([1]; Table 1 formulation, White PETE 10 mL Fill, 2 days @ 60° C.): 7.4 ppm and 7.5 ppm
DDP concentration in formulation ([1]; Table 1 formulation, White PETE 10 mL Fill, 5 days @ 40° C.): 8.8 ppm and 9.3 ppm
DDP concentration in formulation ([1]; Table 1 formulation, White PETE 10 mL Fill, 5 days @ 60° C.): 6.1 ppm and 6.4 ppm
DDP concentration in formulation ([1]; Table 1 formulation, White PETE 10 mL Fill, 6 days @ RT): 9.1 ppm and 9.0 ppm
DDP concentration after thermal exposure (in words) ([1]; Table 1 formulation, sPP container, Tests 1, 2, and 3): drops significantly
DDP concentration in formulation ([1]; Table 3 formulation, Glass Vial 1.5 mL Fill, 1 day @ 40° C.): 20, 20 ppm
DDP concentration in formulation ([1]; Table 3 formulation, Glass Vial 1.5 mL Fill, 1 day @ 60° C.): 20, 20 ppm
DDP concentration in formulation ([1]; Table 3 formulation, Glass Vial 1.5 mL Fill, 1 day @ RT): 20, 20 ppm
DDP concentration in formulation ([1]; Table 3 formulation, Glass Vial 1.5 mL Fill, 2 days @ 40° C.): 19 ppm and 21 ppm
DDP concentration in formulation ([1]; Table 3 formulation, Glass Vial 1.5 mL Fill, 2 days @ 60° C.): 20 ppm and 19 ppm
DDP concentration in formulation ([1]; Table 3 formulation, Glass Vial 1.5 mL Fill, 5 days @ 40° C.): 20, 20 ppm
DDP concentration in formulation ([1]; Table 3 formulation, Glass Vial 1.5 mL Fill, 5 days @ 60° C.): 19, 19 ppm
DDP concentration in formulation ([1]; Table 3 formulation, Glass Vial 1.5 mL Fill, 6 days @ RT): 20, 20 ppm
DDP concentration in formulation ([1]; Table 3 formulation, Natural TEFLON 10 mL Fill, 2 days @ 60° C.): 19 ppm
DDP concentration in formulation ([1]; Table 3 formulation, Natural TEFLON 10 mL Fill, 5 days @ 60° C.): 19 ppm
DDP concentration in formulation ([1]; Table 3 formulation, Natural sPP 4 mL Fill, 1 day @ 40° C.): 13, 13 ppm
DDP concentration in formulation ([1]; Table 3 formulation, Natural sPP 4 mL Fill, 1 day @ 60° C.): 7.0, 7.0 ppm
DDP concentration in formulation ([1]; Table 3 formulation, Natural sPP 4 mL Fill, 1 day @ RT): 18, 18 ppm
DDP concentration in formulation ([1]; Table 3 formulation, Natural sPP 4 mL Fill, 2 days @ 40° C.): 10, 10 ppm
DDP concentration in formulation ([1]; Table 3 formulation, Natural sPP 4 mL Fill, 2 days @ 60° C.): 3.4 ppm and 3.2 ppm
DDP concentration in formulation ([1]; Table 3 formulation, Natural sPP 4 mL Fill, 5 days @ 40° C.): 6.1 ppm and 6.2 ppm
DDP concentration in formulation ([1]; Table 3 formulation, Natural sPP 4 mL Fill, 6 days @ RT): 15, 15 ppm
DDP concentration in formulation ([1]; Table 3 formulation, Start, before filling into packaging): 20, 20 ppm
DDP concentration in formulation ([1]; Table 3 formulation, White PETE 10 mL Fill, 1 day @ 40° C.): 20, 20 ppm
DDP concentration in formulation ([1]; Table 3 formulation, White PETE 10 mL Fill, 1 day @ 60° C.): 19 ppm and 20 ppm
DDP concentration in formulation ([1]; Table 3 formulation, White PETE 10 mL Fill, 1 day @ RT): 21 ppm and 20 ppm
DDP concentration in formulation ([1]; Table 3 formulation, White PETE 10 mL Fill, 2 days @ 40° C.): 20 ppm and 19 ppm
DDP concentration in formulation ([1]; Table 3 formulation, White PETE 10 mL Fill, 2 days @ 60° C.): 18 ppm and 19 ppm
DDP concentration in formulation ([1]; Table 3 formulation, White PETE 10 mL Fill, 5 days @ 40° C.): 20, 20 ppm
DDP concentration in formulation ([1]; Table 3 formulation, White PETE 10 mL Fill, 5 days @ 60° C.): 17 ppm and 18 ppm
DDP concentration in formulation ([1]; Table 3 formulation, White PETE 10 mL Fill, 6 days @ RT): 19 ppm and 20 ppm
available DDP in the contained solution (in words) ([1]; Table 3 formulation, sPP packaging relative to Glass Vial, PETE, and TEFLON, Tests 4, 5, and 6): significant reduction
DDP concentration in formulation ([1]; Table 5 formulation, Glass Vial 1.5 mL Fill, 1 day @ 40° C.): 9.0 ppm and 8.9 ppm
DDP concentration in formulation ([1]; Table 5 formulation, Glass Vial 1.5 mL Fill, 1 day @ RT): 8.7 ppm and 8.6 ppm
DDP concentration in formulation ([1]; Table 5 formulation, Glass Vial 1.5 mL Fill, 2 days @ 40° C.): 8.6 ppm and 8.2 ppm
DDP concentration in formulation ([1]; Table 5 formulation, Glass Vial 1.5 mL Fill, 6 days @ RT): 8.4 ppm and 8.2 ppm
DDP concentration in formulation ([1]; Table 5 formulation, Natural sPP 4 mL Fill, 1 day @ 40° C.): 0.3, 0.3 ppm
DDP concentration in formulation ([1]; Table 5 formulation, Natural sPP 4 mL Fill, 1 day @ RT): 1.1, 1.1 ppm
DDP concentration in formulation ([1]; Table 5 formulation, Start, before filling into packaging): 8.0, 8.0 ppm
DDP concentration in formulation ([1]; Table 5 formulation, White PETE 10 mL Fill, 1 day @ 40° C.): 5.5 ppm and 5.0 ppm
DDP concentration in formulation ([1]; Table 5 formulation, White PETE 10 mL Fill, 1 day @ RT): 6.3 ppm and 6.4 ppm
DDP concentration in formulation ([1]; Table 5 formulation, White PETE 10 mL Fill, 2 days @ 40° C.): 4.6 ppm and 4.5 ppm
DDP concentration in formulation ([1]; Table 5 formulation, White PETE 10 mL Fill, 6 days @ RT): 6.5 ppm and 6.4 ppm
available DDP in the contained solution (in words) ([1]; Table 5 formulation, sPP packaging relative to Glass Vial and PETE, Tests 7, 8, and 9): significant reduction
retaining DDP in the formulation (in words) ([1]; Table 7 formulation, Natural Polystyrene container, Tests 10, 11, and 12): essentially equivalent to the PETE container
loss of DDP from the formulation (in words) ([1]; Table 7 formulation, White LDPE container, Tests 10, 11, and 12): even more severe than the sPP container
loss of DDP from the formulation (in words) ([1]; Table 7 formulation, sPP container, Tests 10, 11, and 12): much greater than that of the Glass Vial or PETE containers
solubility in water [2]: up to 0.002%

CCCCCCCCN1CCCC1=O [N-octyl-2-pyrrolidone]
solubility in water [2]: up to 0.124%
